From patent US11230524B2, “Myocyte enhancer factor 2 (MEF2) modulators” (STANDARD LLC, priority 2017, dated 2022) come the findings set out here.

pIC50: −log10 of the molar value. Bounds are passed on as bounds.

Holding throughout (format): cell-based
The target of assay [1] is MEF2D/HDAC4 protein-protein interactions (Homo sapiens (Human), UniProt Q14814). The assay is described as follows: Mammalian two-hybrid assay, inhibition of MEF2D and HDAC4 protein interactions (luciferase reporter in HeLa cells). To be noted: HeLa cells co-transfected with GAL4-MEF2D, HDAC4-VP16 and Gal4Luc; overnight treatment; luciferase normalized to Renilla. The source says: Detection of MEF2D and HDAC4 interactions. In this mammalian two-hybrid assay, HDAC4 and MEF2D proteins were used. […] Human epithelial carcinoma cells (HeLa) were co-transfected with the two DNA constructs (GAL4-MEF2D and HDAC4-VP16) and a reporter plasmid (Gal4Luc). […] MEF2D and HDAC4 protein interactions were detected as a result of the GAL4-MEF2D and HDAC4-VP16 protein complex binding a DNA promoter on the reporter plasmid (Gal4Luc) and driving cellular expression of a luciferase gene. The measured luciferase protein signal was proportional to the amount of MEF2D and HDAC4 protein interactions occurring with the cell.
The HDAC4 fragment lacked the catalytic domain so that the deacetylase activity was excluded from the assay.
Detection of inhibition of MEF2D and HDAC4 interactions. Next, the assay was used to test whether the compounds could disrupt the interactions between MEF2D and HDAC4. After co-expressing the GAL4-MEF2D and HDAC4-VP16 DNA constructs and reporter plasmid, the HeLa cells were treated with a test compound (10 μM) overnight. Cells transfected with the positive control GAL4VP16 fusion construct and reporter plasmid were also treated with the test compound (10 μM) overnight. As another control, DMSO was added (but kept below 0.2% V/V) to cells transfected with the positive GAL4VP16 fusion construct or the GAL4-MEF2D and HDAC4-VP16 DNA constructs. A luciferase assay was performed as described above according to the manufacturer's protocol (Promega). The luciferase response was normalized against the Renilla Luciferase as an internal control.
The relative activity and IC50 calculations. […] The relative activity, I, was the ratio of former to later, i.e. X/Y, expressed in percentile. […] The IC50 was the concentration of the compounds when X/Y equals 50.

For assay [2], the target named is MEF2D/p300 protein-protein interactions (Homo sapiens (Human), UniProt Q14814). The assay is described as follows: Mammalian two-hybrid assay, inhibition of MEF2D and P300 protein interactions (luciferase reporter in HeLa cells). As to conditions: HeLa cells co-transfected with GAL4-MEF2D, P300-VP16 and Gal4Luc. The source says: Detection of MEF2D and P300 interactions. The same system that was used in Example 19 is used in here to detect MEF2D and P300 interactions. In this assay, two separate DNA constructs were made with MEF2D fused with the GAL4 DNA binding domain (GAL4-MEF2D) and P300 fused with the viral transactivator VP-16 ([…]). Human epithelial carcinoma cells (HeLa) were co-transfected with the two DNA constructs (GAL4-MEF2D and P300-VP16) and a reporter plasmid (Gal4Luc). […] MEF2D and P300 protein interactions were detected as a result of the GAL4-MEF2D and P300-VP16 protein complex binding a DNA promoter on the reporter plasmid (Gal4Luc) and driving cellular expression of a luciferase gene. The measured luciferase protein signal was proportional to the amount of MEF2D and P300 protein interactions occurring with the cell.
The relative activity and IC50 calculations. The IC50 concentrations were calculated in the same manner as described for Example 19.
(In a reporter assay the amount or activity of a reporter protein is the signal.)

Assay [3] deals with neonatal rat ventricular myocytes (NRVMs). The assay is described as follows: Inhibition of fetal calf serum induced cardiomyocyte hypertrophy in vitro. To be noted: Rattus norvegicus, Ventricular myocyte; serum-starved NRVMs, 5% FCS, myocyte size 48 hours after treatment; concentration reducing FCS-induced hypertrophy by 50%. The method, then: To evaluate the ability of the test compounds to inhibit cardio myocyte hypertrophy in vitro, serum-starved neonatal rat ventricular myocytes (NRVMs) were exposed to medium with 5% Fetal Calf Serum (FCS), a powerful activator of myoctye growth (hypertrophy) and treated with one of the compounds at doses ranging from 0.2-10 μM or with the vehicle (dimethyl sulfoxide (DMSO)). Control cells received fresh media without serum. The myocyte size was determined 48 hours after treatment. The results in Table 7 show the concentrations of the test compounds required to reduce the FCS-induced hypertrophy in the NRVMs by 50% (IC50 μM).

Chain of MEF2D/HDAC4 protein-protein interactions (Q14814 whole entry, species assumed, the tested form may be a part): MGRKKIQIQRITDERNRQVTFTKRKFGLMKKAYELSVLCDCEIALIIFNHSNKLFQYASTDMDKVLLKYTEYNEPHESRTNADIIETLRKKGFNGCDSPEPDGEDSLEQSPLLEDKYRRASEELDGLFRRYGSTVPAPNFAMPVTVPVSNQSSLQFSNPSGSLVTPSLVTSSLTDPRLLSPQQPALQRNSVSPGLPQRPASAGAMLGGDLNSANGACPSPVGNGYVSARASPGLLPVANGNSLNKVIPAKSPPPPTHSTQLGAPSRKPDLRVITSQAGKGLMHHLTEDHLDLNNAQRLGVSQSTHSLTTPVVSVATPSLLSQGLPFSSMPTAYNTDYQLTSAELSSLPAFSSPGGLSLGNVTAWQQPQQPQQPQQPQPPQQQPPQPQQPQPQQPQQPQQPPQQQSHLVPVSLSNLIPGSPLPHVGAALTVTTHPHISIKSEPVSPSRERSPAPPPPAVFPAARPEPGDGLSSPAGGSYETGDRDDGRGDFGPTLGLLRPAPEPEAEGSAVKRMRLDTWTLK
Chain of MEF2D/p300 protein-protein interactions (Q14814 whole entry, species assumed, the tested form may be a part): as above

Regarding `Cc1csc(NCc2cccc(/C=C/C(=O)Nc3ccccc3N)c2)n1` [ST66, (E)-N-(2-aminophenyl)-3-(3-((4-methylthiazol-2-ylamino)methyl)phenyl)acrylamide], the pIC50 (usually −log10 of the IC50, conventionally taken in molar units) is 5.61 in assay [1], 5.77 in assay [2] and 2.85 in assay [3]. In the case of `Nc1ccccc1NC(=O)CCCCC(NC(=O)c1ccccc1)C(=O)Nc1cccc(Br)c1` (stereo not drawn) [ST92, N^7-(2-aminophenyl)-2-benzamido-N^1-(3-bromophenyl)heptanediamide], the pIC50 in assay [1] was 6.09; in assay [2] it was 6.33.

As to `Nc1ccccc1NC(=O)/C=C/c1cccc(CNCc2cccc(OC3CCC3)c2)c1` [ST14], the pIC50 in assay [1] was 5.82; in assay [2] it was 6.03; in assay [3], 6.82.

Take `COC(=O)NC(CCCCC(=O)Nc1ccccc1N)C(=O)Nc1cccc(SC)c1` (stereo not drawn) [ST85, methyl (7-((2-aminophenyl)amino)-1-((3-(methylthio)phenyl)amino)-1,7-dioxoheptan-2-yl)carbamate]: the pIC50 in assay [1] was 6.33; in assay [2], above 6.82. The compound `Nc1ccccc1NC(=O)/C=C/c1cccc(CNc2ccc3ccccc3c2)c1` [ST54, (E)-N-(2-aminophenyl)-3-(3-((naphthalen-2-ylamino)methyl)phenyl) Acrylamide] gave a pIC50 in assay [3] of 5.94. Take `Nc1ccccc1NC(=O)/C=C/c1cccc(CNCc2cccc(OC3CC3)c2)c1` [ST13]: the results for the pIC50 in assay [1], in assay [2] and in assay [3] were 5.82, 6.10 and 6.92, respectively. `CCCC(=O)N[C@@H](CCCCC(=O)NO)C(=O)Nc1cccc(Br)c1` [ST108] showed a pIC50 in assay [1] of 6.40.

Take `Nc1ccccc1NC(=O)/C=C/c1cccc(CNc2nc(C(F)(F)F)co2)c1` [ST63, (E)-N-(2-aminophenyl)-3-(3-((4-(trifluoromethyl)oxazol-2-ylamino)methyl)phenyl)acrylamide]: the pIC50 in assay [1] was 5.73; in assay [2], 5.56; in assay [3], 5.38.

In the case of `CCOc1cccc(NCc2cccc(/C=C/C(=O)Nc3ccccc3N)c2)c1` [ST4, (E)-N-(2-aminophenyl)-3-(3-(((3-ethoxyphenyl)amino)methyl)phenyl)acrylamide], the pIC50 in assay [1] was 5.97; in assay [2], 5.96; in assay [3], 5.36. As for `Nc1ccccc1NC(=O)/C=C/c1ccc(F)c(CNc2ccccc2)c1` [ST11], in assay [1], the pIC50 was 4.74. On the same count and under the same terms, with `CCCC(=O)NC(CCCCC(=O)Nc1ccccc1N)C(=O)Nc1cccc(Br)c1` (stereo not drawn) [ST90] the figure was 6.34.

The compound `O=C(CCCC[C@@H](NC(=O)c1ccccc1)C(=O)NC1CC1)NO` [ST128] gave a pIC50 in assay [1] of 5.60. Still for that read-out and setting: with `CCOC(=O)N[C@H](CCCCC(=O)NO)C(=O)Nc1cccc(Br)c1` [ST112] the figure was 6.21; with `O=C(/C=C/c1cccc(CNc2cccc(OC3CC3)c2)c1)NO` [ST16], 6.42; with `CCOC(=O)NC(CCCCC(=O)Nc1cccc(Br)c1)C(=O)Nc1ccccc1N` (stereo not drawn) [ST86], below 4.70. As to `Cc1[nH]c2ccccc2c1CCNc1cccc(/C=C/C(=O)NO)c1` [ST71], the pIC50 in assay [1] was 6.57. Compound `Cc1[nH]c2ccccc2c1CCNCc1cccc(/C=C/C(=O)Nc2ccccc2N)c1` [ST49, (E)-N-(2-aminophenyl)-3-(3-(((2-(2-methyl-1H-indol-3-yl)ethyl)amino)methyl)phenyl)acrylamide] had a pIC50 in assay [3] of 5.91.

`CCN(CC)c1cccc(NCc2cccc(/C=C/C(=O)NO)c2)c1` [ST41] had a pIC50 in assay [1] of 5.94.

As for `Nc1ccccc1NC(=O)/C=C/c1cccc(CNc2nc(-c3ccc(F)cc3)cs2)c1` [ST52], in assay [1], the pIC50 was below 4.70. Still for that read-out and setting: next, `CCOC(=O)NC(CCCCC(=O)Nc1ccccc1N)C(=O)Nc1cccc(Br)c1` (stereo not drawn) [ST80]: 6.25. The same measure, in the same setting: with `CCN(C)c1cccc(NCc2cccc(/C=C/C(=O)NO)c2)c1` [ST38] the figure was 6.59. Still for that read-out and setting: next, `O=C(CCCC[C@@H](NC(=O)c1ccccn1)C(=O)Nc1cccc(Br)c1)NO` [ST111]: 6.03. The compound `CCOC(=O)NC(CCCCC(=O)NO)C(=O)Nc1cccc(Br)c1` (stereo not drawn) [ST113] had a pIC50 in assay [1] of 6.59. On the same count and under the same terms, with `CCOC(=O)NC(CCCCC(=O)Nc1ccccc1N)C(=O)Nc1cccc(SC(F)(F)F)c1` (stereo not drawn) [ST84] the figure was 6.03; with `Cc1cnc(NCc2cccc(/C=C/C(=O)Nc3ccccc3N)c2)s1` [ST59], 5.50. Turning to `O=C(/C=C/c1cccc(CNc2cccc(OCC(F)(F)F)c2)c1)NO` [ST46], the negative-log IC50 (pIC50) in assay [1] was 6.17.

In assay [1], `Cc1csc(NCc2cccc(/C=C/C(=O)NO)c2)n1` [ST78] gave a pIC50 below 4.70. Still for that read-out and setting: next, `O=C(/C=C/c1cccc(CNc2cccc(N3CCNCC3)c2)c1)NO` [ST40]: 6.59. On the same count and under the same terms, with `CN(C)Cc1ccc(NCc2cccc(/C=C/C(=O)NO)c2)cc1` [ST42] the figure was 7.15; with `CCCCc1cccc(NCc2cccc(/C=C/C(=O)NO)c2)c1` [ST34], 5.69. As for `CCC(=O)NC(CCCCC(=O)Nc1ccccc1N)C(=O)Nc1cccc(Br)c1` (stereo not drawn) [ST89], the pIC50 in assay [1] was 6.11; in assay [2], 7.15. Compound `CCOC(=O)NC(CCCCC(=O)Nc1ccccc1N)C(=O)Nc1cccc2cccnc12` (stereo not drawn) [ST117] had a pIC50 in assay [1] of 6.03. Same read-out and setting: next, `O=C(/C=C/c1cccc(CNc2nc(-c3ccncc3)cs2)c1)NO` [ST70]: 6.85; `Cc1nnc(NCc2cccc(/C=C/C(=O)Nc3ccccc3N)c2)s1` [ST60]: 5.30; `O=C(/C=C/c1cccc(CNc2cccc(C3COC3)c2)c1)NO` [ST43]: 6.57. With `Nc1ccccc1NC(=O)CCCCC(NC(=O)c1ccccc1)C(=O)Nc1ccncc1` (stereo not drawn) [ST121], the pIC50 in assay [1] is 5.56. On the same count and under the same terms, next, `O=C(/C=C/c1cccc(CNc2cccc(OC3CCC3)c2)c1)NO` [ST28]: 6.17; `Nc1ccccc1NC(=O)/C=C/c1cccc(CNc2cccc(N3CCOCC3)c2)c1` [ST8]: 5.62. Compound `CCOC(=O)NC(CCCCC(=O)Nc1ccccc1N)C(=O)Nc1ccccn1` (stereo not drawn) [ST126] had a pIC50 in assay [1] of 5.43. `CCCCNC(CCCCC(=O)Nc1ccccc1N)C(=O)Nc1cccc(Br)c1` (stereo not drawn) [ST88] had a pIC50 in assay [1] of 5.14. In assay [1], `CC(C)Oc1cccc(NCc2cccc(/C=C/C(=O)NO)c2)c1` [ST27] showed a pIC50 of 6.46.

`CCOC(=O)N[C@@H](CCCCC(=O)NO)C(=O)Nc1cccc(Br)c1` [ST107] gave a pIC50 in assay [1] of 6.36.

On to `CC(C)(C)OC(=O)N[C@@H](CCCCC(=O)Nc1ccccc1N)C(=O)Nc1cccc(Br)c1` [ST106], for which the pIC50 in assay [1] was 5.95. The same measure, in the same setting: with `COc1cccc(NCc2cccc(/C=C/C(=O)NO)c2)c1` [ST19] the figure was 6.49; with `O=C(/C=C/c1cccc(CNc2ccc(Cl)cc2)c1)NO` [ST26], 6.10; with `CCOc1cccc(NCc2cccc(/C=C/C(=O)NO)c2)c1` [ST21], 6.46. Take `COC(=O)N[C@@H](CCCCC(=O)Nc1ccccc1N)C(=O)Nc1cccc(Br)c1` [ST103]: the pIC50 in assay [1] is 6.46. Still for that read-out and setting: next, `N#Cc1cccc(NCc2cccc(/C=C/C(=O)NO)c2)c1` [ST23]: 6.38; `Nc1ccccc1NC(=O)/C=C/c1cccc(CNc2nc3ccccc3s2)c1` [ST50]: 5.59. On the same count and under the same terms, with `CCOC(=O)NC(CCCCC(=O)Nc1ccccc1N)C(=O)Nc1nc(-c2ccncc2)cs1` (stereo not drawn) [ST115] the figure was 6.27. Compound `CCOC(=O)NC(CCCCC(=O)Nc1ccccc1N)C(=O)Nc1cccc(C(C)(F)F)c1` (stereo not drawn) [ST81] had a pIC50 in assay [1] of 6.07.

Take `Nc1ccccc1NC(=O)/C=C/c1cccc(C(=O)Nc2nc(-c3ccncc3)cs2)c1` [ST57]: the pIC50 in assay [1] was below 4.70. As to `Nc1ccccc1NC(=O)/C=C/c1cccc(CNc2cccc3cccnc23)c1` [ST56], the pIC50 in assay [1] is 5.28.
